From BindingDB's records for doi:10.1007/s10822-022-00478-x (Roche Innovation Center Basel, F. Hoffmann-La Roche Ltd., 2022)

molecular target: cAMP and cAMP-inhibited cGMP 3',5'-cyclic phosphodiesterase 10A (Homo sapiens, UniProt Q9Y233); experiment: PDE10A assay
In short: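 Human PDE10A (2 ng/well) preincubated 15 min RT with compound in HEPES pH 7.5, 10 mM MgCl2, BSA, then reacted 15 min with 50 nM [3H]cGMP/cGMP substrate. Stopped with Y-Si SPA beads; bound radioactivity counted, IC50 from four-parameter logistic, pIC50 = −log10(IC50).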

| Structure (SMILES) | IC50 [nM] |
| --- | --- |
| Cn1cc(-c2ccccc2)nc1COc1nc2ccccc2c(=O)[nH]1 [Roche-Dataset for PDE10A, Compound 366] | 90 |
| O=C(Nc1cnccc1C(=O)N1CC(F)(F)C1)c1nc(C2CC2)ccc1Nc1cncnc1 [Roche-Dataset for PDE10A, Compound 508] | 30 |
| O=C(NCc1ccc(C(F)(F)F)cc1)c1nc(C2CC2)cnc1Nc1cncnc1 [Roche-Dataset for PDE10A, Compound 668] | 100 |
| COC[C@H]1CCCN1c1nc(/C=C/c2nc3c(C)ncc(C)n3n2)n(C)n1 [Roche-Dataset for PDE10A, Compound 388] | 5.53 |
| COCc1ccc(NC(=O)c2nc(C3CC3)cnc2Nc2cncnc2)c(C(=O)NCC(C)(C)O)n1 [US8703768, 210] | 0.48 |
| Cc1cc(C)n2nc(/C=C/c3nc(N4CCCC4)nn3C3CC3)nc2n1 [Roche-Dataset for PDE10A, Compound 350] | 21 |
| Cc1c(Cl)cc(Cl)c2nc(CCc3nc(N4CCCC4)nn3C)nn12 [Roche-Dataset for PDE10A, Compound 357] | 0.55 |
| Cc1cnc(C)n2nc(CCc3ncnn3C)nc12 [Roche-Dataset for PDE10A, Compound 1130] | 2420 |
| O=C(Nc1ccn2nc(-c3ccccc3)nc2c1)c1cc(Cl)nc(Cl)c1 [Roche-Dataset for PDE10A, Compound 327] | 38 |
| O=C(c1nc(C2CC2)cnc1Nc1cncnc1)N1CCN(C2CCCCC2)CC1 [Roche-Dataset for PDE10A, Compound 1040] | 10000 |
| Cc1cn2nc(CCc3nc(N4CCCC4)nn3C)nc2cn1 [Roche-Dataset for PDE10A, Compound 678] | 929 |
| CN(C)C(=O)c1cc(NC(=O)c2nc(C3CC3)ccc2Nc2cncnc2)n(C)n1 [Roche-Dataset for PDE10A, Compound 404] | 444 |
| Cc1cc(NC(=O)c2ccc3cc(-c4ccccc4)nn3c2)ccn1 [Roche-Dataset for PDE10A, Compound 384] | 35 |
| CCOC(=O)c1cnn(C)c1C(=O)Nc1ccn2nc(-c3ccccc3OC)nc2c1 [Roche-Dataset for PDE10A, Compound 220] | 12 |
| Cn1cc(-c2ccccc2)nc1COc1cnc2cc(Cl)ccc2n1 [Roche-Dataset for PDE10A, Compound 598] | 9.77 |
| COCCN(C)C(=O)c1cnn(C)c1C(=O)N[C@@H]1CCn2cc(-c3ccccc3)nc2C1 [Roche-Dataset for PDE10A, Compound 112] | 34 |
| O=C(Nc1cccc(OCC(F)(F)F)c1)c1nc(C2CC2)cnc1Nc1cncnc1 [Roche-Dataset for PDE10A, Compound 694] | 16 |
| C/C(=C\c1nc2c(C)ncc(C)n2n1)c1nc(N2CCCC2)nn1C [Roche-Dataset for PDE10A, Compound 805] | 62 |
| COCCN(C)C(=O)c1cnn(C)c1C(=O)Nc1ccn2cc(-c3ccnc(F)c3)nc2n1 [Roche-Dataset for PDE10A, Compound 147] | 780 |
| CN(C)C(=O)c1nn(-c2ccccn2)cc1NC(=O)c1nc(C2CC2)ccc1Nc1cncnc1 [US8703768, 74] | 6.78 |
| Cc1cc(-c2nc3cc(NC(=O)c4c(C(=O)N5CCC5)cnn4C)ccn3n2)ccn1 [Roche-Dataset for PDE10A, Compound 234] | 1.91 |
| CN(C)c1nc(OCc2cc3ccccn3n2)nc2ccc(Cl)cc12 [Roche-Dataset for PDE10A, Compound 586] | 423 |

| Structure (SMILES) | IC50 [nM] |
| --- | --- |
| O=C(Nc1cnn(Cc2ccccc2)c1)c1nc(C2CC2)ccc1Nc1cncnc1 [Roche-Dataset for PDE10A, Compound 614] | 69 |
| Cn1nnc(C(=O)N2CCC2)c1C(=O)Nc1ccn2nc(-c3ccccc3)nc2c1 [Roche-Dataset for PDE10A, Compound 250] | 182 |
| Cn1ncc(C(=O)N2CCC2)c1C(=O)Nc1ccc2sc(N3CCOCC3)nc2c1 [Roche-Dataset for PDE10A, Compound 397] | 1.86 |
| CC(=O)Nc1cccc(NC(=O)c2nc(C3CC3)cnc2Nc2cncnc2)n1 [Roche-Dataset for PDE10A, Compound 1084] | 25 |
| Cc1cccc(CCc2nc(-c3ccccc3)cn2C)n1 [Roche-Dataset for PDE10A, Compound 328] | 9270 |
| O=C(Nc1ccn(S(=O)(=O)C(F)(F)F)n1)c1nc(C2CC2)ccc1Nc1cncnc1 [Roche-Dataset for PDE10A, Compound 635] | 18 |
| Cn1nc(N2CCCC2)nc1CCc1nc2cnc(C#N)cn2n1 [Roche-Dataset for PDE10A, Compound 500] | 4170 |
| Cn1cc(Br)c(C(=O)Nc2cc(-c3ccccn3)nn2C)n1 [Roche-Dataset for PDE10A, Compound 934] | 811 |
| Cc1nn(C)c2nc(OCc3nc(-c4ccccc4)cn3C)ncc12 [Roche-Dataset for PDE10A, Compound 396] | 107 |
| O=C(c1nc(C2CC2)cnc1Nc1cncnc1)N1CCC(N2CCOCC2)CC1 [Roche-Dataset for PDE10A, Compound 1098] | 10000 |
| O=C(NCc1cccc(F)c1)c1nc(C2CC2)cnc1Nc1cncnc1 [Roche-Dataset for PDE10A, Compound 837] | 499 |
| Cc1cc(NC(=O)c2c(C(=O)N3CCC3)cnn2C)nn1CC(F)F [Roche-Dataset for PDE10A, Compound 1050] | 136 |
| Cn1ncc(C(=O)N2CCC2)c1C(=O)Nc1cc(-c2ccccc2Cl)n[nH]1 [Roche-Dataset for PDE10A, Compound 958] | 1290 |
| Cc1ncc(C(C)C)c2nc(CCc3nc(N4CCCC4)nn3C)nn12 [Roche-Dataset for PDE10A, Compound 672] | 7.01 |
| CCn1ncc(NC(=O)c2c(C(=O)N3CCC3)cnn2C)c1C(=O)NCC(C)C [Roche-Dataset for PDE10A, Compound 1057] | 594 |
| Cn1cc(-c2ccccc2)nc1CCc1cnc2ccccc2n1 [US9834564, Compound 20] | 21 |
| CN(C)C(=O)c1cnn(C)c1C(=O)Nc1ccc2[nH]c(-c3ccccc3)nc2c1 [Roche-Dataset for PDE10A, Compound 195] | 0.36 |
| COC[C@H]1CCCN1c1nc(CCc2nc3c(C)ncc(C)n3n2)n(Cc2ccc(OC)cc2)n1 [Roche-Dataset for PDE10A, Compound 38] | 15 |
| Cc1ccc(CNC(=O)c2cnn(C)c2C(=O)Nc2ccn3cc(-c4ccccc4)nc3n2)nc1 [Roche-Dataset for PDE10A, Compound 862] | 322 |
| CNC(=O)c1cc2[nH]c(-c3ccccc3)nc2cc1NC(=O)c1cc[nH]n1 [Roche-Dataset for PDE10A, Compound 619] | 390 |
| Cc1c(Cl)cc(Cl)c2nc(CCc3nc4ncccn4n3)nn12 [Roche-Dataset for PDE10A, Compound 791] | 916 |
| Cc1cccc(-c2cn3c(n2)C[C@H](NC(=O)c2c(C(=O)N(C)C4CC4)cnn2C)CC3)c1 [Roche-Dataset for PDE10A, Compound 114] | 8.53 |

| Structure (SMILES) | IC50 [nM] |
| --- | --- |
| COCCn1ncc(NC(=O)c2nc(C3CC3)ccc2Nc2cncnc2)c1C(=O)N(C)C [Roche-Dataset for PDE10A, Compound 944] | 13 |
| CN(C(=O)c1cnn(C)c1C(=O)Nc1ccn2nc(N3CCOCC3)nc2c1)C1CC1 [Roche-Dataset for PDE10A, Compound 207] | 1.1 |
| COC1CN(C(=O)c2cnn(C)c2C(=O)Nc2ccn3nc(-c4ccccc4)nc3c2)C1 [Roche-Dataset for PDE10A, Compound 139] | 25 |
| CC(C)NC(=O)c1cccc(NC(=O)c2nc(C3CC3)cnc2Nc2cncnc2)n1 [Roche-Dataset for PDE10A, Compound 928] | 8.6 |
| CN(C)c1nc(/C=C/c2cccc(Br)n2)nc2ccc(Cl)cc12 [Roche-Dataset for PDE10A, Compound 574] | 281 |
| CS(=O)(=O)CCNC(=O)c1nc(C2CC2)cnc1Nc1cncnc1 [Roche-Dataset for PDE10A, Compound 1061] | 1630 |
| CSc1ncc(Nc2cncnc2)c(C(=O)Nc2cc(-c3ccccn3)nn2C)n1 [Roche-Dataset for PDE10A, Compound 519] | 1360 |
| Cn1ncc(Cl)c1C(=O)Nc1ccn2nc(-c3ccccc3)nc2c1 [Roche-Dataset for PDE10A, Compound 433] | 208 |
| Cn1ncc(C(=O)N2CCC2)c1C(=O)N[C@@H]1CCn2cc(-c3cccc(Cl)c3)nc2C1 [Roche-Dataset for PDE10A, Compound 161] | 6.59 |
| Cc1ncc(C)n2nc(CCc3nc(N4CCNCC4)nn3C)nc12 [Roche-Dataset for PDE10A, Compound 515] | 767 |
| CCCn1nc(-c2ccccn2)cc1NC(=O)c1nc(C2CC2)ccc1Nc1cncnc1 [US8470820, 23] | 1.68 |
| Cc1c(Cl)ccc2nc(CCc3nc4ccc(Cl)c(C)n4n3)nn12 [Roche-Dataset for PDE10A, Compound 512] | 472 |
| CCn1nc(-c2ccccn2)cc1NC(=O)c1nc(C2CC2)ccc1Nc1cncnc1 [US8470820, 30] | 4.73 |
| COc1ccc2c(=O)n(C)c3cnc(-c4ccccc4Cl)n3c2c1 [Roche-Dataset for PDE10A, Compound 1048] | 432 |
| Cn1cc(-c2ccccc2)nc1CCc1nc(N2CCOCC2)c2cc(Cl)ccc2n1 [Roche-Dataset for PDE10A, Compound 54] | 1.08 |
| COc1ccccc1-c1cn2c(n1)C[C@H](NC(=O)c1c(C(=O)N(C)CCF)cnn1C)CC2 [Roche-Dataset for PDE10A, Compound 351] | 173 |
| O=C(Nc1ccc2cc(-c3ccccc3)nn2c1)c1onc2ccc(Br)cc12 [Roche-Dataset for PDE10A, Compound 523] | 10 |
| CN1C(=O)c2ccc(NC(=O)c3nc(C4CC4)ccc3Nc3cncnc3)cc2C1=O [Roche-Dataset for PDE10A, Compound 849] | 48 |
| Cn1ncc(C(=O)N2CCC2)c1C(=O)Nc1cc(-c2ccccc2Cl)nn1C1CCCC1 [Roche-Dataset for PDE10A, Compound 438] | 879 |
| O=C1c2ccccc2C(=O)N1CCc1nc(-c2ccccn2)no1 [Roche-Dataset for PDE10A, Compound 490] | 5450 |
